From article PMC5756575, “In Vitro Biotransformation, Safety, and Chemopreventive Action of Novel 8-Methoxy-Purine-2,6-Dione Derivatives” (Applied Biochemistry and Biotechnology, 2017)
Entries after “also recorded” stand apart in the source; their conditions may differ. Where two headings read alike, the source gives them in different places.

Experiments:
rat liver microsomes = assay: Microsomal stability assay; assay type: in vitro ADME; details: rat microsomal biotransformation after 30 min of incubation
Procedure: Compounds 1 and 3 were studied in a biotransformation assay using rat liver microsomes following procedures described previously. The reagents used in this assay were levallorphan (internal standard) and NADPH-regenerating system, which contained phosphate buffer (pH 7.4), NADP^+, glucose-6-phosphate, and glucose-6-phosphate dehydrogenase. The final protein concentration in the assay was 0.4 mg/mL. Compounds 1 and 3 were tested at a final concentration of 20 μM.
The amount of a parental compound remaining in a solution after biotransformation was monitored using LC-MS/MS as described previously in “Cunninghamella Biotransformation Assay.” Graphs representing ln of percentage of parent compound remaining versus incubation time were drawn to calculate in vitro half-time (t1/2) from the slope of linear regression. To obtain intrinsic clearance (Clint) of a tested compound in rat liver microsomal assay, t1/2 previously calculated was substituted at the equation Clint = [(Vmic/Pmic) × 0.693/t1/2], being Vmic and Pmic the volume of incubation in microliters and the amount of incubated protein in milligrams, respectively.
(§1) Agilent 1100 HPLC system (Agilent Technologies, Waldbronn, Germany) equipped with a Xbridge™ C18 analytical column (2.1 × 30 mm, […]; Waters, Dublin, Ireland) was used in the chromatographic separation of LC-MS/MS analysis. An elution gradient of acetonitrile and water, with 0.1% of formic acid, was used as a mobile phase. MS spectra were taken at Applied Biosystems MDS Sciex API 200 triple quadrupole mass analyzer (Concord, Ontario, Canada) with an electrospray ionization (ESI) interface between HPLC and MS.

[1] = system: Cunninghamella echinulata NRRL 1384; assay: Cunninghamella biotransformation assay, C. echinulata; assay type: in vitro ADME; details: 0.5 mg/mL, 7-day incubation, LC-MS/MS
Procedure: (§2) Three different strains of Cunninghamella were used: Cunninghamella echinulata NRRL 1384, Cunninghamella blakesleeana 1908 DMS, and Cunninghamella elegans 1906 DMS. The first was provided by Dr. A.J. Carnell (University of Liverpool, UK), whereas the two remaining were purchased from Deutsche Sammlung von Mikroorganismen und Zellkulturen GmbH (DMSZ, Braunschweig, Germany).
(§3) Cunninghamella strains were cultivated on solid potato dextrose agar (PDA) plates at 28 °C. After 4 days, a liquid fermentation basal medium was prepared by the addition of 6 g of D-glucose, 1.5 g of NaCl, 1.5 g of yeast extract from Saccharomyces cerevisiae, and 1.5 g of K2HPO4 to 300 mL of distilled water. Aliquots of 24.5 mL of medium were inoculated with 300 μL of suspension of fungal spores obtained after wetting colonies in PDA. The fungi were incubated with shaking until the formation of spherical clumps.
(§4) Compounds 2–4 were evaluated in this experiment. Once microorganisms formed spherical clumps in the preliminary incubation, the corresponding tested compound was added to the broth and the mixture was incubated for 7 days. Two control experiments were also performed, in the absence of compound and fungus, respectively. Biotransformation progress was monitored by TLC and by liquid chromatography electrospray ionization-tandem mass spectrometry (LC-MS/MS). Monitoring was performed at four different incubation times: 30 min, 3 days, 5 days, and 7 days.
(§5) To analyze metabolites in LC-MS/MS, an aliquot of 500 μL of filtered sample was taken and extracted with 500 μL of dichloromethane. The organic fraction was dried with sodium sulfate, filtered, and evaporated. The obtained residue was analyzed in LC-MS/MS. At the end of experiment, all the remaining medium was extracted with 25 mL of dichloromethane after separating the fungal clumps by filtration over cellulose filters.
as §1

[2] = system: Cunninghamella elegans 1906 DMS; assay: Cunninghamella biotransformation assay, C. elegans; assay type: in vitro ADME; details: 0.5 mg/mL, 7-day incubation, LC-MS/MS
Procedure: as §2, §3, §4, §5, §1

[3] = system: Cunninghamella blakesleeana 1908 DMS; assay: Cunninghamella biotransformation assay, C. blakesleeana; assay type: in vitro ADME; details: 0.5 mg/mL, 7-day incubation, LC-MS/MS
Procedure: as §2, §3, §4, §5, §1

Vibrio harveyi BB7XM [4] = assay type: cell-based; details: compound 40 ng/mL + NQNO 40 ng/mL
Source text: (§6) Four Vibrio harveyi strains were used in this study: a wild-type BB7 (naturally found in the Baltic Sea) and three genetically modified strains, namely BB7M (obtained by the introduction of pAB1273 plasmid containing the genes mucA and mucB to enhance the error-prone DNA repair), BB7X (hypersensitive to UV radiation after genetic modification with Tn5TpMCS), and BB7XM (containing the two abovementioned modifications). These strains were kindly provided by Prof. G. Węgrzyn (Department of Molecular Biology, University of Gdańsk, Poland).
(§7) It causes point mutations at the genome as it induces G:C → A:T transitions in Vibrio harveyi strains and in other bacteria such as Escherichia coli and S. typhimurium. […] Next, its working solution was prepared in sterile water, being 40 ng/mL its final concentration.
(§8) Procedure followed in the V. harveyi antimutagenicity assay was similar to the mutagenicity method described before. […] The results were expressed as the inhibition percentage of mutagenic effect, which was calculated with the formula: 100 − [(R 1/R 2) × 100], where R 1 is the number of revertants per plate in the presence of both mutagen and tested substance, and R 2 is the number of revertants per plate in the presence of mutagen. […] S. typhimurium antimutagenicity assay was based on similar assumptions as the V. harveyi antimutagenicity test. In this case, the chemopreventive activity was determined at two concentrations of a tested compounds and a standard mutagen, i.e., 40 and 500 ng/mL.

Vibrio harveyi BB7M [5] = details: 40 ng/mL
Procedure: (§9) From them, 0.2 mM working solutions were prepared by dilution with water. […] Working solutions were prepared by 1:100 dilution of stock solution in water, and final compound concentration assayed was 40 ng/mL.
as §6, §7
(§10) To perform the V. harveyi mutagenicity test, 10 μL of a working solution of the tested compound (100 μg/mL) were added to V. harveyi bacterial culture (OD600 = 0.1) in NaCl-containing BOSS liquid medium, being 40 ng/mL the final concentration of the tested compound. […] Then, an inoculum containing 5 × 10^6 cells was added to solid BOSS agar plate supplemented with neomycin sulfate at a final concentration of 100 μg/mL. Samples were left incubating 48 h at 30 °C, and revertant colonies were counted manually.

Vibrio harveyi BB7 [6] = details: BB7, 40 ng/mL
Procedure: as §9, §6, §7, §10

Vibrio harveyi BB7X [7] = details: 40 ng/mL
Procedure: as §9, §6, §7, §10

Vibrio harveyi BB7X [8] = assay: Vibrio harveyi antimutagenicity assay against NQNO, BB7X; assay type: cell-based; details: compound 40 ng/mL + NQNO 40 ng/mL
Source text: as §6, §7, §8

Vibrio harveyi BB7 [9] = assay: Vibrio harveyi antimutagenicity assay against NQNO, BB7; assay type: cell-based
Source text: as §6, §7, §8

Vibrio harveyi BB7M [10] = assay: Vibrio harveyi antimutagenicity assay against NQNO, BB7M; assay type: cell-based; details: compound 40 ng/mL + NQNO 40 ng/mL
Source text: as §6, §7, §8

Cunninghamella strains = assay: Cunninghamella biotransformation assay, three strains together and blank without fungus; assay type: in vitro ADME; details: three strains, LC-MS/MS
Procedure: as §2, §3, §4, §5
Agilent 1100 HPLC system (Agilent Technologies, Waldbronn, Germany) equipped with a Xbridge™ C18 analytical column (2.1 × 30 mm, […]; Waters, Dublin, Ireland) was used in the chromatographic separation of LC-MS/MS analysis. […]

[11] = system: Salmonella typhimurium TA100; assay: S. typhimurium antimutagenicity assay against NQNO; assay type: cell-based; details: for Number of revertants per plate, Mean ± SD: antimutagenicity, NQNO line = NQNO as a single compound
Source text: (§11) In the Ames test, Salmonella typhimurium TA100 strain was used. This strain has a base-pair substitution that can be reverted by mutations at GC pairs. In addition, it contains mutations at uvrB-bio and rfa genes to eliminate excision repair mechanisms and to make the bacteria more permeable to chemicals, respectively. Finally, TA100 also includes pKM101 plasmid, which enhances both chemical and UV-induced mutagenesis via an increase in the error-prone recombinational DNA repair pathway. TA100 strain of S. typhimurium was provided by Dr. T. Nohmi (Division of Genetics and Mutagenesis, National Institute of Hygienic Sciences, Tokyo, Japan). V. harveyi and S. typhimurium bacterial cultures were maintained at 30 and 37 °C, respectively.
as §7, §8

Vibrio harveyi BB7XM [12] = assay: Vibrio harveyi mutagenicity assay, BB7XM; assay type: cell-based; details: 40 ng/mL
Procedure: as §9, §6, §7, §10

[13] = system: Salmonella typhimurium TA100; assay: Ames mutagenicity test; assay type: cell-based
Procedure: From them, 0.2 mM working solutions were prepared by dilution with water. […]
as §11
It causes point mutations at the genome as it induces G:C → A:T transitions in Vibrio harveyi strains and in other bacteria such as Escherichia coli and S. typhimurium. […]
S. typhimurium was cultivated in a fresh medium 12 h prior to a test. To perform mutagenicity assay, 100 μL of an overnight culture (containing approx. 1 × 10^8 to 2 × 10^8 bacteria) were inoculated along with 50 μL of a tested compound in 2 mL of top agar supplemented with traces of histidine and of biotin. Then the mixture was added over the surface of GM agar plates and was left incubating 48 h at 37 °C. Afterwards, the colonies were counted manually.

[14] = antimutagenicity, NQNO line = NQNO as a single compound
[15] = TA100, compound and NQNO 40 ng/mL
[16] = TA100, compound and NQNO 500 ng/mL
[17] = TA100, 500 ng/mL (NQNO control stated as 40 ng/mL in method)

Compound: COc1nc2c(c(=O)n(C)c(=O)n2C)n1CCCC(N)=O [3-M1]
- % content among metabolites (rat liver microsomes): 100%
- % of compound/metabolite in C. echinulata [1]: 1.5%

Compound: COc1nc2c(c(=O)n(C)c(=O)n2C)n1CCCC(=O)NCc1ccccc1O [3-M2]
- % of compound/metabolite in C. echinulata [1]: 1.6%

Compound: COc1nc2c(c(=O)n(C)c(=O)n2C)n1CCCC(=O)NCc1cccc(O)c1 [3-M3]
- % of compound/metabolite in C. echinulata [1]: 0.3%

Compound: COc1nc2c(c(=O)n(C)c(=O)n2C)n1CCCC(=O)NCc1ccc(O)cc1 [3-M4]
- % of compound/metabolite in C. echinulata [1]: 4.2%
- % of compound/metabolite in C. elegans [2]: – – – 0.6%
- % of compound/metabolite in C. blakesleeana [3]: – – – 4.6%

Compound: COc1nc2c(c(=O)n(C)c(=O)n2C)n1CCCC(=O)N1CCN(c2ccc(O)cc2)CC1 [4-M1]
- % of compound/metabolite in C. echinulata [1]: 87.6%
- % of compound/metabolite in C. elegans [2]: 53.0%
- % of compound/metabolite in C. blakesleeana [3]: 66.6%

Compound: COC(=O)Cn1c(OC)nc2c1c(=O)n(C)c(=O)n2C [Compound 2, methyl 2-(8-methoxy-1,3-dimethyl-2,6-dioxo-purin-7-yl)acetate]
- Number of revertants per plate, Mean ± SD (Vibrio harveyi BB7XM [4]; [14]): 68 ± 8
- % inhibition of NQNO mutagenicity (Vibrio harveyi BB7XM [4]): 12%
- MI (mutagenicity index) (Vibrio harveyi BB7M [5]; mutagenic if MI above 2.0): 1.3
- Number of revertants per plate, Mean ± SD (Vibrio harveyi BB7M [5]; mutagenicity): 36 ± 9
- MI (mutagenicity index) (Vibrio harveyi BB7 [6]; mutagenic if MI above 2.0): 1.2
- Number of revertants per plate, Mean ± SD (Vibrio harveyi BB7 [6]; mutagenicity): 15 ± 2
- MI (mutagenicity index) (Vibrio harveyi BB7X [7]; mutagenic if MI above 2.0): 1.2
- Number of revertants per plate, Mean ± SD (Vibrio harveyi BB7X [7]; mutagenicity): 27 ± 2
- Number of revertants per plate, Mean ± SD (Vibrio harveyi BB7X [8]; [14]): 35 ± 6
- % inhibition of NQNO mutagenicity (Vibrio harveyi BB7X [8]): 68%
- % inhibition of NQNO mutagenicity (Vibrio harveyi BB7 [9]; BB7, compound 40 ng/mL + NQNO 40 ng/mL): 38%
- Number of revertants per plate, Mean ± SD (Vibrio harveyi BB7 [9]; antimutagenicity, BB7, compound 40 ng/mL + NQNO 40 ng/mL, NQNO line = NQNO as a single compound): 34 ± 7
- chemopreventive (antimutagenic) effect, class (Vibrio harveyi BB7 [9]; wild BB7 strain, against NQNO): moderate or a close to moderate
- Number of revertants per plate, Mean ± SD (Vibrio harveyi BB7M [10]; [14]): 45 ± 10
- % inhibition of NQNO mutagenicity (Vibrio harveyi BB7M [10]): 54%
- biotransformation / detectable metabolites in Cunninghamella model (in words) (Cunninghamella strains): did not undergo any biotransformation; also recorded: None of the three Cunninghamella strains evaluated generated detectable metabolites
- % inhibition of NQNO mutagenicity [11, 15]: 92%
- % inhibition of NQNO mutagenicity [11, 16]: 91%
- Number of revertants per plate, Mean ± SD [11, 15]: 7 ± 2
- Number of revertants per plate, Mean ± SD [11, 16]: 9 ± 4
- MI (mutagenicity index) (Vibrio harveyi BB7XM [12]; mutagenic if MI above 2.0): 1.6
- Number of revertants per plate, Mean ± SD (Vibrio harveyi BB7XM [12]; mutagenicity): 53 ± 8
- Number of revertants per plate, Mean ± SD ([13]; TA100, 40 ng/mL): 10 ± 3
- MI (mutagenicity index) ([13]; TA100, 40 ng/mL, mutagenic if MI >2.0): 0.3
- MI (mutagenicity index) [13, 17]: 0.5
- Number of revertants per plate, Mean ± SD [13, 17]: 14 ± 5
